Source: patent US20220162610A1, “NOVEL RNA TRANSCRIPT” (PTC Therapeutics, Inc., priority 2020, published 2022)

Experiments:
[1] = system: HTT mRNA; experiment: RT-qPCR quantification of HTT mRNA in HD patient fibroblasts, 24 h; type: cell-based, human; settings: fibroblasts derived from HD patients
Description: Test compounds were serially diluted 3-fold in 100% DMSO to generate a 7-point concentration curve. A solution of test compound (500 nl, 200× in DMSO) was added to each test well with Acoustic Transfer System. Fibroblasts were seeded in 96-well flat-bottomed plates (Thermo Fisher Scientific) at 1×10^4 cells/well in 100 μl of culture medium containing the test compound or DMSO vehicle control and incubated for 24 hours (37° C., 5% CO2, 100% relative humidity). After removal of the supernatant, cells were lysed in RNA lysis buffer (1M Tris-HCL pH 7.4, 5M NaCl, 10% IGEPAL®CA-630; 50 μL/well) for 1 minute at RT, before 50 μL of chilled nuclease free water was added to each well; plates were then transferred immediately onto ice before storing at −80° C. overnight.
Cell lysates were assayed by quantitative reverse transcriptase polymerase chain reaction (RT-qPCR) to measure mRNA levels of HTT and glyceraldehyde 3-phosphate dehydrogenase (GAPDH) in the presence or absence of the test compound.
A reverse transcriptase quantitative polymerase chain reaction (RT-qPCR) reaction mixture of primers and probe sets for HTT and GAPDH was prepared according to TABLE III. […]

[2] = system: mouse HTT protein; experiment: Mouse HTT protein expression under compound treatment; type: cell-based; settings: at concentrations that reduce human HTT protein expression
[3] = system: HTT protein; experiment: HTT protein electrochemiluminescence (ECL) assay in HD patient fibroblasts, 96 h; type: cell-based, human; settings: for HTT protein level: fibroblasts derived from HD patients, 96 h
Description: Human fibroblasts derived from a homozygous patient with HD (GM4857) were cultured for 96 hours in the presence of test compounds (in 0.5% DMSO) or controls at 37° C. in a humidified 5% CO2 atmosphere. After 96 hours, cells were lysed and frozen. HTT protein levels were measured in lysates as described below. Compounds that decreased HTT protein levels relative to DMSO control were further tested in a dose response assay.
For analysis in the electrochemiluminescence (ECL) assays, test compounds were serially diluted 3-fold in 100% DMSO (Sigma) to generate a 7-point concentration curve. A solution of test compound (500 nL, 200× in DMSO) was added to each test well with Acoustic Transfer System (EDC Biosystems); final concentration of DMSO was 0.5%. Fibroblasts were seeded in 96-well flat-bottomed plates (Thermo Fisher) at 4×10^3 cells/well in 100 μl of culture medium containing the test compound or DMSO vehicle control and incubated for 96 hours (37° C., 5% CO2, 100% relative humidity). After removal of the supernatant, cells were lysed in 50 μL of 1×LB11 extraction buffer (50 mM Tris (pH 7.4), 300 mM NaCl, 10% [w/v] glycerol, 3 mM EDTA, 1 mM MgCl2, 20 mM glycerophosphate, 25 mM NaF, 1% Triton X-100), containing a Complete™ protease inhibitor cocktail (Roche Diagnostics) with shaking at 4° C. for 30 minutes; the plates were then stored at −20° C.
Meso Scale Discovery® 96-well plates (MSD®) were coated overnight at 4° C. with primary antibodies in phosphate-buffered saline (PBS; 30 μl/well). The plates were washed three times with 0.05% Tween-20 in 1×PBS (PBS-T; 200 μl/well) then blocked (100 μl/well; 5% bovine serum albumin [BSA] in PBS-T) for 5-6 hours at room temperature (RT) with shaking. Plates were then washed three times with PBS-T. Cell lysates were transferred to the antibody coated plates (25 μl/well) and incubated with shaking overnight at 4° C. After removal of the lysates, the plates were washed three times with PBS-T, and 25 μl of detection antibody in 1% BSA, PBS-T was added to each well and incubated with shaking for 1 hour at room temperature. After three washes with PBS-T, 25 μl of Sulfo-Tag secondary antibody (MSD®; 0.25 μg/ml in 1% BSA, PBS-T) was added to each well and incubated with shaking for 1 hour at RT. After washing three times with PBS-T, 150 μl of read buffer T with surfactant (MSD®) was added to each empty well and the plate was imaged on the SI 6000 imager (MSD®) according to manufacturers' instructions for 96-well plates. Primary capture antibodies included: anti-polyglutamine-expanded HTT mouse monoclonal antibody (mAb) clone MW1 (1 μg/mL; Developmental Studies Hybridoma Bank); anti-HTT MAB2166 mAb (1 μg/mL; Millipore); anti-human KRAS rabbit polyclonal antibody (1 μg/mL; Thermo Fisher Scientific). Detection antibodies included: Huntingtin (D7F7) XP® Rabbit mAb (0.25 μg/ml; Cell Signalling Technology®); anti-hKRAS mouse mAb (0.25 μg/ml; LSBIO).

[4] = system: HTT mRNA; experiment: RT-qPCR of HTT mRNA in HD patient B lymphocytes (GM04856); type: cell-based, human
Description: B lymphocytes (GM04856 cells) were plated in 6-well plates at 5×10^5 cells/well in 2 mL of 10% FBS, DMEM and incubated for 6 hours (37° C., 5% CO2, 100% relative humidity). Cells were then treated with HTT-C1 at 125 nM (in 0.5% DMSO) in triplicate for 24 hours. RNA was purified with the RNeasy Mini Kit (Qiagen) according to the manufacturer's protocol. Samples were prepared for RT-PCR (described previously) using 0.04 μL of each primer (at 100 μM). For reverse transcription and PCR, the following steps were performed: RT step: 48° C. (15 min); PCR steps: Step 1: 95° C. (10 min), Step 2: 95° C. (30 sec), Step 3: 55° C. (30 sec), Step 4: 68° C. (1 min); Steps 2 to 4 were repeated for 34 cycles, then held at 4° C. PCR products were separated on 2% agarose E-gels, stained with ethidium bromide and visualized using a UVP gel imager.
To test if the small molecule-induced spliced transcripts are unstable due to nonsense-mediated decay (NMD), GM04856 lymphoblast cells were treated with cycloheximide (CHX). First cells were treated with DMSO or 250 nM HTT-C1 for 18 h. DMSO or 10 uM CHX was then added, and cells harvested for RNAs after 2 h, 4 h, and 8 h.

Compound | amount of HTT mRNA [1] | mouse HTT protein expression [2] | HTT protein level [3] | wild type and mutant HTT protein expression ([3]; fibroblasts, 96-hour treatment) | reduction in HTT mRNA (RT-qPCR) ([4]; 250 nM, GM04856 lymphoblast cells, 18 h plus 2-8 h) [%] | lowering of the amount of HTT mRNA as compared to the DMSO control ([4]; 24-hour treatment, 125 nM, B-lymphocytes from an HD patient)
CC1(C)CC(Oc2ccc(-c3ccc(-c4ccnc(O)c4)cc3O)nn2)CC(C)(C)N1 [HTT-C1] | dose-dependent decrease | no effect | dose-dependent decrease | lowered HTT protein expression from both alleles | ~80 | about 85%
CCN1CCC(c2cc(C)c3nc(-c4ccc5nn(C)cc5c4)cc(=O)n3c2)CC1 [HTT-D1] | dose-dependent decrease |  | dose-dependent decrease |  |  | 
